Results from US5026910A, “Polyfluoroalkyl nitrogen compounds, processes for their preparation and their use” (Societe Atochem, priority 1989, dated 1991).

Assays:
[1] = surface tension of aqueous solution (0.1%); assay type: physicochemical; settings: for surface tension: aqueous solution containing 0.1%; for γs (surface tension): aqueous solution at a concentration of 0.1%
Method: (§1) The surface tension of an aqueous solution containing 0.1% of this salt is 19.2 mN m^-1 at 25° C. The interfacial tension of an aqueous solution containing 0.1% of this salt, in equilibrium with cyclohexane, is 5.8 mN m^-1 at 25° C.
(§2) The surface tension of an aqueous solution containing 0.1% of this salt is 15.5 mN m^-1 at 25° C. The interfacial tension of an aqueous solution containing 0.1% of this salt, in equilibrium with cyclohexane, is 6.4 mN m.-1 at 25° C.
This yields the corresponding quaternary salts of formula: [drawing 19] which are colorless or slightly orange-colored pastes. These salts are completely water-soluble. Their yield and the surface tension at 25° C. of an aqueous solution at a concentration of 0.1% are shown in the second and third columns of Table 5.
(§3) The surface tension Ys and interfacial tension Yi (relative to cyclohexane)of the ammonium salt in question, which are measured at 25° C. in aqueous solution at a concentration of 0.1%, are shown in the fourth and fifth columns of Table 6, the third column showing the yield.
(§4) The surface tension of an aqueous solution containing 0.1% of this salt is 15.5 mN m^-1 at 25° C. The interfacial tension in relation to cyclohexane in the same conditions is 5.5 mN m^-1 .
(§5) By proceeding in the same manner starting with 1,3-dibromopropane, the double quaternary salt of formula: [drawing 24] is obtained in a 98% yield. The surface tension of an aqueous solution containing 0.1% of this salt is 16.4 mN m^-1 at 25° C. The interfacial tension relative to cyclohexane in the same conditions is 7.7 mN m^1.
The surface tension of an aqueous solution containing 0.1% of this N-oxide at 25° C. is 16.3 mN m^-1
The surface tension of an aqueous solution containing 1 0.1% of this betaine is 16.2 mN m^-1.

[2] = interfacial tension of aqueous solution (0.1%) relative to cyclohexane; assay type: physicochemical; settings: 25° C.; for γi (interfacial tension relative to cyclohexane): Table 6, aqueous solution at a concentration of 0.1%
Method: as §1, §2, §3, §4, §5

[3] = aqueous solution containing 0.1%, cyclohexane

Compound | γs (surface tension) ([1]; Table 6, 25° C.) | γi (interfacial tension relative to cyclohexane) ([2]; cyclohexane) | further results
C[N+](C)(C)CCNC(=S)NCCC(F)(F)C(F)(F)C(F)(F)C(F)(F)C(F)(F)C(F)(F)F |  |  | surface tension ([1]; 25° C.): 19.2 mN m^-1; interfacial tension in equilibrium with / relative to cyclohexane [2, 3]: 5.8 mN m^-1
C[N+](C)(C)CCNC(=S)NCCC(F)(F)C(F)(F)C(F)(F)C(F)(F)C(F)(F)C(F)(F)C(F)(F)C(F)(F)F |  |  | surface tension ([1]; 25° C.): 15.5 mN m^-1; interfacial tension in equilibrium with cyclohexane [2, 3]: 6.4 mN m.-1
C[N+](C)(CCNC(=S)NCCC(F)(F)C(F)(F)C(F)(F)C(F)(F)C(F)(F)C(F)(F)F)Cc1ccccc1 |  |  | γs (surface tension) ([1]; Table 5, 25° C.): 17.4 mN m^-1
C[N+](C)(CCNC(=S)NCCC(F)(F)C(F)(F)C(F)(F)C(F)(F)C(F)(F)C(F)(F)F)CC[N+](C)(C)CCNC(=S)NCCC(F)(F)C(F)(F)C(F)(F)C(F)(F)C(F)(F)C(F)(F)F |  |  | surface tension ([1]; 25° C.): 15.5 mN m^-1; interfacial tension in equilibrium with / relative to cyclohexane [2, 3]: 5.5 mN m^-1
C[N+](C)(CCC[N+](C)(C)CCNC(=S)NCCC(F)(F)C(F)(F)C(F)(F)C(F)(F)C(F)(F)C(F)(F)F)CCNC(=S)NCCC(F)(F)C(F)(F)C(F)(F)C(F)(F)C(F)(F)C(F)(F)F |  |  | surface tension ([1]; 25° C.): 16.4 mN m^-1; interfacial tension relative to cyclohexane ([2]; in the same conditions: aqueous solution containing 0.1%): 7.7 mN m^1
C[N+](C)([O-])CCNC(=S)NCCC(F)(F)C(F)(F)C(F)(F)C(F)(F)C(F)(F)C(F)(F)F |  |  | surface tension ([1]; 25° C.): 16.3 mN m^-1
C[N+](C)(CCNC(=S)NCCC(F)(F)C(F)(F)C(F)(F)C(F)(F)C(F)(F)C(F)(F)F)CC(=O)[O-] |  |  | surface tension ([1]; temperature not given): 16.2 mN m^-1
CCCCCCCC[N+](C)(C)CCNC(=S)NCCC(F)(F)C(F)(F)C(F)(F)C(F)(F)F [C4 F9 / C8 H17] | 19.7 mN m^-1 | 0.7 mN m^-1 | 
CCCCCCCCCCCC[N+](C)(C)CCNC(=S)NCCC(F)(F)C(F)(F)C(F)(F)C(F)(F)F [C4 F9 / C12 H25] | 23.1 mN m^-1 | 1.9 mN m^-1 | 
CCCCCCCCCCCCCCCC[N+](C)(C)CCNC(=S)NCCC(F)(F)C(F)(F)C(F)(F)C(F)(F)F [C4 F9 / C16 H33] | 26.8 mN m^-1 | 2.1 mN m^-1 | 
CCCCCCCC[N+](C)(C)CCNC(=S)NCCC(F)(F)C(F)(F)C(F)(F)C(F)(F)C(F)(F)C(F)(F)F [C6 F13 / C8 H17] | 15.9 mN m^-1 | 1.4 mN m^-1 | 
CCCCCCCCCCCC[N+](C)(C)CCNC(=S)NCCC(F)(F)C(F)(F)C(F)(F)C(F)(F)C(F)(F)C(F)(F)F [C6 F13 / C12 H25] | 17.5 mN m^-1 | 0.8 mN m^-1 | 
CCCCCCCCCCCCCCCC[N+](C)(C)CCNC(=S)NCCC(F)(F)C(F)(F)C(F)(F)C(F)(F)C(F)(F)C(F)(F)F [C6 F13 / C16 H33] | 20.3 mN m^-1 | 0.7 mN m^-1 | 
CCCCC[N+](C)(C)CCNC(=S)NCCC(F)(F)C(F)(F)C(F)(F)C(F)(F)C(F)(F)C(F)(F)C(F)(F)C(F)(F)F [C8 F17 / C5 H11] | 16 mN m^-1 | 2 mN m^-1 | 
CCCCCCCC[N+](C)(C)CCNC(=S)NCCC(F)(F)C(F)(F)C(F)(F)C(F)(F)C(F)(F)C(F)(F)C(F)(F)C(F)(F)F [C8 F17 / C8 H17] | 15.9 mN m^-1 | 3.2 mN m^-1 | 
CCCCCCCCCCCC[N+](C)(C)CCNC(=S)NCCC(F)(F)C(F)(F)C(F)(F)C(F)(F)C(F)(F)C(F)(F)C(F)(F)C(F)(F)F [C8 F17 / C12 H25] | 15.2 mN m^-1 | 2.2 mN m^-1 | 
C=CC[N+](C)(C)CCNC(=S)NCCC(F)(F)C(F)(F)C(F)(F)C(F)(F)C(F)(F)C(F)(F)F [CH2CHCH2Br] |  |  | γs (surface tension) ([1]; Table 5, 25° C.): 16.4 mN m^-1
C[N+](C)(CCO)CCNC(=S)NCCC(F)(F)C(F)(F)C(F)(F)C(F)(F)C(F)(F)C(F)(F)F [HOC2 H4Br] |  |  | γs (surface tension) ([1]; Table 5, 25° C.): 15.4 mN m^-1
